Measurements reported in ChEMBL document CHEMBL3217442, “Synthesis and bioevaluation of aryl hydroxamates distinguishing between NAD+ and ATP-dependent DNA ligases” (Medchemcomm, 2012).
≈ marks a conversion by molar mass, not a printed value. Calls of active or inactive are those of the source. The calls are words filed in the database; no cut-off is given here.

Experiments:
Escherichia coli [1] = experiment: Antibacterial activity against Escherichia coli GR501 harboring temperature sensitive lig251 mutant rescued with T4 DNA ligase after 20 hrs; type: functional
Salmonella typhimurium [2] = experiment: Antibacterial activity against Salmonella typhimurium LT2 expressing LigA after 20 hrs; type: functional
Salmonella typhimurium [3] = experiment: Antibacterial activity against Salmonella typhimurium TT15151 harboring LigA null mutant rescued with ATP-dependent DNA ligase after 20 hrs; type: functional, Salmonella enterica subsp. enterica serovar Typhimurium
[4] = Inhibition of Mycobacterium tuberculosis DNA LigA using 22-mer and 18-mer DNA complementary strand as substrate after 1 hr by 15% polyacrylamide gel electrophoresis
[5] = Inhibition of Bacteriophage […] using 22-mer and 18-mer DNA complementary strand as substrate after 1 hr by 15% polyacrylamide gel electrophoresis; parameters: species or system Tequatrovirus T4
[6] = Ratio of IC50 for Bacteriophage T4 DNA ligase to IC50 for Mycobacterium tuberculosis DNA LigA
[7] = Ratio of IC50 for human DNA ligase 1 to IC50 for Mycobacterium tuberculosis DNA LigA
DNA ligase 1 = DNA ligase 1 (Homo sapiens, UniProt P18858); experiment: Inhibition of human DNA ligase 1 expressed in Escherichia coli BL21 (DE3) using 22-mer and 18-mer DNA complementary strand as substrate after 1 hr by 15% polyacrylamide gel electrophoresis
Sequence of DNA ligase 1 (P18858 whole entry): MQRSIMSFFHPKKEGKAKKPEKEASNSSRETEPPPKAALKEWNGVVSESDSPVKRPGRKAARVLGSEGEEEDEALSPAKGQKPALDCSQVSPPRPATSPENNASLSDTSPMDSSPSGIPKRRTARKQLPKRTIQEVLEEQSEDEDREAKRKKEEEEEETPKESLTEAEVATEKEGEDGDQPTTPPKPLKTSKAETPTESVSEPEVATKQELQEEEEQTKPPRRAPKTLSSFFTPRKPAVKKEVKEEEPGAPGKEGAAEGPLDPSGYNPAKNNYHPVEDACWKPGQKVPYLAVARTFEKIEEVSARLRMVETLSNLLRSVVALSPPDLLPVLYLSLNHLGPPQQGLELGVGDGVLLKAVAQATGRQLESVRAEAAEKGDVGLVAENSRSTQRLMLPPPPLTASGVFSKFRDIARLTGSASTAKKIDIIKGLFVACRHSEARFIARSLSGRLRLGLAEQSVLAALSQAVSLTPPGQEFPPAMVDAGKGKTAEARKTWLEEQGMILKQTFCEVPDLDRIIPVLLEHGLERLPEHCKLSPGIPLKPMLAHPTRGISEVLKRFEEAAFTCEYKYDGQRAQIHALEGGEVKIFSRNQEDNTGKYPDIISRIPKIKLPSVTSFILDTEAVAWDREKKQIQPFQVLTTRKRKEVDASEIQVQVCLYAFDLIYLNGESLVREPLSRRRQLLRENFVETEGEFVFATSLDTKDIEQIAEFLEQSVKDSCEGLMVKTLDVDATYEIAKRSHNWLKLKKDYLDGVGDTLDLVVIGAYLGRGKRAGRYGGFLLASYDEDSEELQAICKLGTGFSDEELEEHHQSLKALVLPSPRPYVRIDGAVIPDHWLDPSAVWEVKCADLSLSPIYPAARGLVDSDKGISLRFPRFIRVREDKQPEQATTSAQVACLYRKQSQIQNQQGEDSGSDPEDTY

Bos taurus = organism: Bos taurus; experiment: Displacement of ethidium bromide from calf thymus DNA assessed as relative fluorescence intensity at 250 uM
Escherichia coli [8] = experiment: Binding affinity to Escherichia coli pUC18 DNA after 1 hr by gel shift assay
Salmonella typhimurium [9] = experiment: Bactericidal activity against Salmonella typhimurium LT2 expressing LigA assessed as bacterial cell viability at 0.5 to 2.5 times MIC after 5 hrs; type: functional, organism-based; conditions: Salmonella enterica subsp. enterica serovar Typhimurium
Salmonella typhimurium [10] = experiment: Bactericidal activity against Salmonella typhimurium TT15151 harboring LigA null mutant rescued with ATP-dependent DNA ligase assessed as bacterial cell viability at 0.5 to 2.5 times MIC after 5 hrs; type: functional, organism-based; conditions: Salmonella enterica subsp. enterica serovar Typhimurium
[11] = Competitive inhibition of Mycobacterium tuberculosis DNA LigA using NDA+ as substrate by double reciprocal plot analysis
[12] = Salmonella enterica subsp. enterica serovar Typhimurium
[13] = Salmonella enterica, TT15151, 20 h

Row | Compound | MIC (Escherichia coli [1]; GR501, 20 h) [µg/mL] | MIC (Salmonella typhimurium [2]; [12]) | MIC (Salmonella typhimurium [3]; [13]) [µg/mL] | MIC (Escherichia coli [1]) | IC50 [4] [µM] | IC50 [5] [µM] | Ratio IC50 [6] | Ratio IC50 [7] | further results
1 | C=CCOc1ccc(OCc2ccc(Br)cc2)cc1C(=O)NO | 80 (≈ 212 µM) | inactive | 20 (≈ 52.9 µM) | – | – | – | – | – | –
2 | C#CCOc1ccc(OCC=C)c(C(=O)NO)c1 | 150 (≈ 607 µM) | – | – | – | – | – | – | – | MIC (Salmonella typhimurium [2]; Salmonella enterica, LT2, 20 h): 600 µg/mL (≈ 2430 µM); MIC (Salmonella typhimurium [3]; [12]): inactive
3 | O=C(NO)c1ccccc1OCc1ccc(Cl)c(Cl)c1 | – | – | – | inactive | 20 | < 20 | 10 | 10 | –
4 | C=CCOc1c(OCc2ccccc2)cccc1C(=O)NO | – | inactive | – | inactive | – | – | – | – | MIC (Salmonella typhimurium [3]; [12]): inactive
5 | O=C(NO)c1ccccc1OCc1cccc(Cl)c1 | – | – | – | inactive | 24 | 8 | 10 | 10 | –
6 | O=C(NO)c1ccccc1OCC(O)Cn1cc(-c2ccccc2)nn1 (stereo not drawn) | 40 (≈ 113 µM) | – | 50 (≈ 141 µM) | – | 11.4 | 31.4 | 10 | 10 | MIC (Salmonella typhimurium [2]; Salmonella enterica, LT2, 20 h): 30 µg/mL (≈ 84.7 µM); IC50 (DNA ligase 1): 41.8 µM; Activity (Bos taurus): inactive; Activity (Escherichia coli [8]): inactive
7 | C=CCOc1cc(OCc2cc(Cl)ccc2Cl)ccc1C(=O)NO | – | inactive | 200 (≈ 543 µM) | inactive | – | – | – | – | –
8 | CCCCCCOc1c(C(=O)NO)ccc2ccccc12 | > 200 | – | – | – | 13.6 | 9.6 | 10 | 10 | –
9 | C=CCOc1ccc(OCC=C)c(C(=O)NO)c1 | 200 (≈ 802 µM) | inactive | 150 (≈ 602 µM) | – | – | – | – | – | –
10 | C=CCOc1cccc(C(=O)NO)c1OCC=C | – | inactive | 400 (≈ 1600 µM) | inactive | – | – | – | – | –
11 | C=CCOc1ccccc1C(=O)NO | 90 (≈ 466 µM) | – | 70 (≈ 362 µM) | – | 7.07 | 62.3 | 10 | 10 | MIC (Salmonella typhimurium [2]; Salmonella enterica, LT2, 20 h): 20 µg/mL (≈ 104 µM); Activity (Salmonella typhimurium [9]): Active; Activity (Salmonella typhimurium [10]): Active; IC50 (DNA ligase 1): 59.3 µM; Ki [11]: 4.3 µM; Activity (Bos taurus): inactive; Activity (Escherichia coli [8]): inactive
12 | O=C(NO)c1ccc2ccccc2c1OCc1cccc(Cl)c1 | – | – | – | inactive | 20 | 12 | 10 | 10 | –
13 | C=CCOc1ccc(C(=O)NO)c(OCC=C)c1 | 150 (≈ 602 µM) | – | – | – | – | – | – | – | MIC (Salmonella typhimurium [2]; Salmonella enterica, LT2, 20 h): 800 µg/mL (≈ 3210 µM); MIC (Salmonella typhimurium [3]; [12]): inactive
14 | C=CCOc1ccc(OCc2ccccc2)cc1C(=O)NO | 400 (≈ 1340 µM) | inactive | 150 (≈ 501 µM) | – | – | – | – | – | –
15 | O=C(NO)c1ccc2ccccc2c1OCc1ccc(Cl)c(Cl)c1 | > 200 | – | – | – | 10.6 | 5.5 | 10 | 10 | –
16 | C=CCOc1ccc(OCc2cc(Cl)ccc2Cl)cc1C(=O)NO | 400 (≈ 1090 µM) | inactive | 800 (≈ 2170 µM) | – | – | – | – | – | –
17 | C=CCOc1cc(OCc2ccc(Br)cc2)ccc1C(=O)NO | – | inactive | 40 (≈ 106 µM) | inactive | – | – | – | – | –
